How the values were obtained:
ATR/ATRIP = ATR/ATRIP (Homo sapiens (Human), UniProt Q13535); assay: ATR/ATRIP kinase assay (TR-FRET, p53 Ser15 phosphorylation); format: biochemical; details: 0.5 μM ATP, 50 nM p53
Procedure: ATR/ATRIP Kinase Assay—Measurement of ATR/ATRIP Inhibition
The IC50 value was determined by an ATR/ATRIP enzymatic assay. The assay comprises two steps: the enzymatic reaction and the detection step. First, a mixture of ATR/ATRIP protein (Ataxia Telangiectasia and Rad3-related protein/ATR interacting protein), the compound in question at different concentrations, p53 as substrate protein and adenosine triphosphate (ATP) are incubated in assay buffer. ATR phosporylates p53 at Ser15 and other residues. The amount of phosphorylated p53 is then detected using specific antibodies and the TR-FRET assay technology.
In detail: The ATR/ATRIP enzymatic assay is performed as a TR-FRET-(HTRF™, Cisbio Bioassays) based 384-well assay. In a first step, purified human recombinant ATR/ATRIP (human ATR, full length, GenBank ID: NM_001184.3, and human ATRIP, full length, GenBank ID AF451323.1, co-expressed in a mammalian cell line) is incubated in assay buffer for 15 minutes at 22° C. with test compound at different concentrations or without test compound (as a negative control). The assay buffer contains 25 mM HEPES pH 8.0, 10 mM Mg(CH3COO)2, 1 mM MnCl2, 0.1% BSA, 0.01% Brij® 35, and 5 mM dithiothreitol (DTT). An Echo 555 (Labcyte) is used for dispensing of compound solutions. Then, in a second step, purified human recombinant cmyc-tagged p53 (human p53, full length, GenBank ID: BC003596, expressed in Sf21 insect cells) and ATP are added and the reaction mixture is incubated for 25-35 minutes, typically 25 minutes, at 22° C. The pharmacologically relevant assay volume is 5 μl. The final concentrations in the assay during incubation of the reaction mixture are 0.3-0.5 nM, typically 0.3 nM, ATR/ATRIP, 50 nM p53, and 0.5 μM ATP. The enzymatic reaction is stopped by the addition of EDTA. The generation of phosphorylated p53 as a result of the ATR mediated reaction in the presence of ATP is detected by using specific antibodies [labeled with the fluorophores europium (Eu) as donor and d2 as acceptor (Cisbio Bioassays)] enabling FRET. For this purpose, 2 μl of antibody-containing stop solution (12.5 mM HEPES pH 8.0, 125 mM EDTA, 30 mM sodium chloride, 300 mM potassium fluoride, 0.006% Tween-20, 0.005% Brij® 35, 0.21 nM anti-phospho-p53(Ser15)-Eu antibody, 15 nM anti-cmyc-d2 antibody) are added to the reaction mixture. Following signal development for 2 h the plates are analyzed in an EnVision (PerkinElmer) microplate reader using the TRF mode with laser excitation. Upon excitation of the donor europium at 340 nm the emitted fluorescence light of the acceptor d2 at 665 nm as well as from the donor Eu at 615 nm are measured. The amount of phosphorylated p53 is directly proportional to the ratio of the amounts of emitted light i.e. the ratio of the relative fluorescence units (rfu) at 665 nm and 615 nm. Data are processed employing the Genedata Screener software. In particular, IC50 values are determined in the usual manner by fitting a dose-response curve to the data points using nonlinear regression analysis. • IC50=half maximal inhibitory concentration • ATP=Adenosine triphosphate • TR-FRET=Time-Resolved Fluorescence Resonance Energy Transfer • HTRF®=Homogeneous Time Resolved Fluorescence • HEPES=2-(4-(2-Hydroxyethyl)-1-piperazinyl)-ethanesulfonic acid • Mg(CH3COO)2=Magnesium acetate • MnCl2=Manganese(II)-chloride • BSA=Bovine Serum Albumin • EDTA=Ethylendiamine Tetraacetate • TRF=Time Resolved Fluorescence pCHK1 Cellular Assay

[1] = tested on: phosphorylation of Chk1 (Ser 345) in HT29 colon adenocarcinoma cells; assay: pCHK1 cellular assay; format: cell-based; details: Homo sapiens, HT-29, hydroxyurea 3 mM, 4 h
Excerpt: Chk1 kinase acts downstream of ATR and has a key role in DNA damage checkpoint control. Activation of Chk1 involves phosphorylation of Ser317 and Ser345 (regarded as the preferential target for phosphorylation/activation by ATR) and occurs in response to blocked DNA replication and certain forms of genotoxic stress. Phosphorylation at Ser 345 serves to localize Chk1 to the nucleus following checkpoint activation.
This assay measures a decrease in phosphorylation of Chk1 (Ser 345) in HT29 colon adenocarcinoma cells following treatment with compound and hydroxyurea (which promotes fork stalling because of dNTP depletion) and using an immunocytochemical procedure and high content imaging.
For the assay HT29 cells are plated in culture medium (DMEM high Glucose (no phenol red), 2 mM Glutamax, 1 mM Pyruvate, 10% FCS into Greiner 384 well plates, black, μclear #781090 (2500 cells/well/30 μl) and incubated for at least 20 hours at 37° C., 10% CO2 and 90% rH. Diluted test compounds (1 nM-30 μM final) and hydroxyurea (3 mM final) are added simultaneously and cells are incubated for 4 h at 37° C. After fixation/prmeabilisation with 100% MeOH (−20° C. cold) and permeabilisation with 0.2% Triton X-100 a complete immunocytochemical procedure is performed using a specific anti-pChk1 antibody (Cell Signaling, #2348BF) and fluorescently labelled secondary antibody (Alexa Fluor® 488 goat anti-rabbit F(ab′)2 fragment, Invitrogen A11070) and parallel nuclear staining for cell counting.
The nuclear localised pChk1 signal is detected on an ImageXpress Ultra confocal high content reader and reported as % positive cells (nuclei).

Sequence of ATR/ATRIP (Q13535 whole entry): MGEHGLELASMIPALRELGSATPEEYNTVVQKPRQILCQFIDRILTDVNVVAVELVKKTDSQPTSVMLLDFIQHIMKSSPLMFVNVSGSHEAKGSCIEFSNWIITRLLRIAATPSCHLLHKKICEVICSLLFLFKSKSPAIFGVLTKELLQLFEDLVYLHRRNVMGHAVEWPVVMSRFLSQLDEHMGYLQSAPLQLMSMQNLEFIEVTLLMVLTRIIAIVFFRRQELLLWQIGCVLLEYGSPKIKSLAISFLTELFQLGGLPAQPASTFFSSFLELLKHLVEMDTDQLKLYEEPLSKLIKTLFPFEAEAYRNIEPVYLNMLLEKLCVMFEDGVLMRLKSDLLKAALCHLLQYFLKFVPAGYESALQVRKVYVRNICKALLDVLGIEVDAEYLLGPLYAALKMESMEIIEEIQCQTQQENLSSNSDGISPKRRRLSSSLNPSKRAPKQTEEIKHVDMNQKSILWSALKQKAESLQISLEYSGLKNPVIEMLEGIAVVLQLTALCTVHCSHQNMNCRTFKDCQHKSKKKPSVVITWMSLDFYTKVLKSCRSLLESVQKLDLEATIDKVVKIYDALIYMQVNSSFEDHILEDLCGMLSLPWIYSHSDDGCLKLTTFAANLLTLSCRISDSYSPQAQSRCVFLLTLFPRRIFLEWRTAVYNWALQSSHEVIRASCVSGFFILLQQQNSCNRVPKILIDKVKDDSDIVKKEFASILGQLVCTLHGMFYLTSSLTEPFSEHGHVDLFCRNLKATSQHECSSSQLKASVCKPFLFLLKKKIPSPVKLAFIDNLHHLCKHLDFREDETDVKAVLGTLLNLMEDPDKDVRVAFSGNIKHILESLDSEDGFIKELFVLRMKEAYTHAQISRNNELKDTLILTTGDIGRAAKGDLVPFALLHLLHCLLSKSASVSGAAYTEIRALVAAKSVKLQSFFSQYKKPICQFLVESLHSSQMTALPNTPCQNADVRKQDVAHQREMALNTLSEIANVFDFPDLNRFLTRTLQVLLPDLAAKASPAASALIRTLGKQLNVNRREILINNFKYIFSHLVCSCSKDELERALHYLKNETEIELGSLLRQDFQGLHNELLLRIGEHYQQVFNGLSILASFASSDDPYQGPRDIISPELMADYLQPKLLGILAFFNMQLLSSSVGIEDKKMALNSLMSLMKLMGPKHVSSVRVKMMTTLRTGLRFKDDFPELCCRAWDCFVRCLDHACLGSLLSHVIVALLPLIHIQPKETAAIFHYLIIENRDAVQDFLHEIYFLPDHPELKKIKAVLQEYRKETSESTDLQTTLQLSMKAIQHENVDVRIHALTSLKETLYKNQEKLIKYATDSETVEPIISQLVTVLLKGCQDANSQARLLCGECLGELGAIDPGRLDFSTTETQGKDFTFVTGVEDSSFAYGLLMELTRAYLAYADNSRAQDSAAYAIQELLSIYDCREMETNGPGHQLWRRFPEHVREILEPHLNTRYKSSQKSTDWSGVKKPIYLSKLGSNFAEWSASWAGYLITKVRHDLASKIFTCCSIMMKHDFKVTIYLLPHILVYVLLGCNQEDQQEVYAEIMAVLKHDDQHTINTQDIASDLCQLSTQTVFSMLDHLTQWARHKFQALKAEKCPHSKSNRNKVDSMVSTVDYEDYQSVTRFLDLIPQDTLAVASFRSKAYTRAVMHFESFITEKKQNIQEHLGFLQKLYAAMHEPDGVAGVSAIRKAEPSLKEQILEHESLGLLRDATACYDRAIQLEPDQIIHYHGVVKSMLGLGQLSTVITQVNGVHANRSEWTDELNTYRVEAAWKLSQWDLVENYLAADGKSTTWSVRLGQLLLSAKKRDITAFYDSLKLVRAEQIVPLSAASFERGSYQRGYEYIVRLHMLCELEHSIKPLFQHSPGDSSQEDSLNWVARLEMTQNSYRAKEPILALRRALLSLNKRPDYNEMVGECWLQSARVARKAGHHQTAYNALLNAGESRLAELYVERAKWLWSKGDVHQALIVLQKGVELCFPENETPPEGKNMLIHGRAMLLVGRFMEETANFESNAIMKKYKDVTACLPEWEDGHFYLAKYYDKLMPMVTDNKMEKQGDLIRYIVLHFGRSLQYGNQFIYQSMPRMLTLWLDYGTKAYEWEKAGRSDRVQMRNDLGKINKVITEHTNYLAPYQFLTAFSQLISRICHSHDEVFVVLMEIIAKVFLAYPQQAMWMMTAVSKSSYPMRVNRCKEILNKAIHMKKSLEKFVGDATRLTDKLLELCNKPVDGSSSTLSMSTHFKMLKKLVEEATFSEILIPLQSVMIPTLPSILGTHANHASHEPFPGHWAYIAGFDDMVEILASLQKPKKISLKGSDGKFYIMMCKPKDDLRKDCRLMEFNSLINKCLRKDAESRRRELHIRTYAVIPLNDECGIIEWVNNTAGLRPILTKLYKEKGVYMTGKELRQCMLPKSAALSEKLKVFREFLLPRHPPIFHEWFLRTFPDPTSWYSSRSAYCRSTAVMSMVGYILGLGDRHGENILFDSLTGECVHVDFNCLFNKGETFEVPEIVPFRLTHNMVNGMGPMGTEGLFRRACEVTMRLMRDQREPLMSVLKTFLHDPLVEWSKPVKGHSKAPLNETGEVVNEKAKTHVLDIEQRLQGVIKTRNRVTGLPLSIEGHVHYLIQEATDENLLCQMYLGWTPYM
Sequence of ATR/ATRIP (Q8WXE1 whole entry partner): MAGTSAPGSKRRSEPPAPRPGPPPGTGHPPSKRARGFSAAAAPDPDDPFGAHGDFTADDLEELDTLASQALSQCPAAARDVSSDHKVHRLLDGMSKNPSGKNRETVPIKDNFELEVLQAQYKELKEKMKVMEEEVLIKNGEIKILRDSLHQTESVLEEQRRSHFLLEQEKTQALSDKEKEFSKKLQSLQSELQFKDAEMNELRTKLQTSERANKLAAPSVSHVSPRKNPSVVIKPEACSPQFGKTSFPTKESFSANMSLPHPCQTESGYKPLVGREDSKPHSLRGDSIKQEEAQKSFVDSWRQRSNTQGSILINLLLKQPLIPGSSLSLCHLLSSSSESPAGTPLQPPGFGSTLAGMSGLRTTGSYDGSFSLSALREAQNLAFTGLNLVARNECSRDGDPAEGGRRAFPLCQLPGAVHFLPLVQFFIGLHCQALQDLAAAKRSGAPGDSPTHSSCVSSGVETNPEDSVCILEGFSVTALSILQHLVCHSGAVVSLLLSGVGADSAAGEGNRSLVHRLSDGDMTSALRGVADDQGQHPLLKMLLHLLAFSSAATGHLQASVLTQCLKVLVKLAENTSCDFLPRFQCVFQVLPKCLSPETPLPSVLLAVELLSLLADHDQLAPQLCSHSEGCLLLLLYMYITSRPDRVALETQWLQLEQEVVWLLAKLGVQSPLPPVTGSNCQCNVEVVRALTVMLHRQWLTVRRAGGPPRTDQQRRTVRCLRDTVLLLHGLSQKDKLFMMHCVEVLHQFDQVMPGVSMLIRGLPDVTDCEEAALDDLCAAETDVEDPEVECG

SMILES	IC50 (ATR/ATRIP) [µM]	IC50 [1] [µM]
Cc1cccnc1-c1cc(N2CCOC[C@H]2C)nc2c(-c3cc[nH]n3)n[nH]c12 [Compound 39, (3R)-3-Methyl-4-[7-(3-methylpyridin-2-yl)-3-(1H-pyrazol-3-yl)-1H-pyrazolo[4,3-b]pyridin-5-yl]morpholine]	0.0079	0.1 to 1
C[C@@H]1COCCN1c1ccc2c(n1)c(-c1cc[nH]n1)nn2CCc1ccncc1 [Compound 77, (3R)-3-Methyl-4-[3-(1H-pyrazol-3-yl)-1-[2-(pyridin-4-yl)ethyl]-1H-pyrazolo[4,3-b]pyridin-5-yl]morpholine]	0.058	1 to 10
C[C@@H]1COCCN1c1cc(-c2ccnc3[nH]ccc23)c2nn(C)c(-c3cc[nH]n3)c2n1 [Compound 16, 2-Methyl-5-((R)-3-methyl-morpholin-4-yl)-3-(1H-pyrazol-3-yl)-7-(1H-pyrrolo[2,3-b]pyridin-4-yl)-2H-pyrazolo[4,3-b]pyridine]	0.067	1 to 10
C[C@@H]1COCCN1c1ccc2c(n1)c(-c1cc[nH]n1)nn2-c1cccc(S(C)(=O)=O)c1 [Compound 47, 1-(3-Methanesulfonyl-phenyl)-5-((R)-3-methyl-morpholin-4-yl)-3-(1H-pyrazol-3-yl)-1H-pyrazolo[4,3-b]pyridine]	0.089	1 to 10
C[C@@H]1COCCN1c1ccc2c(n1)c(-c1cc[nH]n1)nn2-c1ccc(S(C)(=O)=O)cc1 [Compound 46, 1-(4-Methanesulfonyl-phenyl)-5-((R)-3-methyl-morpholin-4-yl)-3-(1H-pyrazol-3-yl)-1H-pyrazolo[4,3-b]pyridine]	0.025	1 to 10

Results, then the compound that gave them:

IC50 (ATR/ATRIP) [µM]	IC50 [1] [µM]	SMILES
0.028	0.1 to 1	C[C@@H]1COCCN1c1cc(-c2cccc(S(C)(=O)=O)c2)c2c(n1)c(-c1ccn[nH]1)nn2C [Compound 76, (3R)-4-[7-(3-Methanesulfonylphenyl)-1-methyl-3-(1H-pyrazol-5-yl)-1H-pyrazolo[4,3-b]pyridin-5-yl]-3-methylmorpholine]
0.015	0.1 to 1	C[C@@H]1COCCN1c1cc(C(=O)N(C)C)c2c(n1)c(-c1cc[nH]n1)nn2C [Compound 30, 1-Methyl-5-((R)-3-methyl-morpholin-4-yl)-3-(1H-pyrazol-3-yl)-1H-pyrazolo[4,3-b]pyridine-7-carboxylic acid dimethylamide]
0.003	0.1 to 1	C[C@@H]1COCCN1c1cc(C2=CCS(=O)(=O)CC2)c2c(n1)c(-c1ccn[nH]1)nn2C [Compound 81, 4-[1-Methyl-5-[(3R)-3-methylmorpholin-4-yl]-3-(1H-pyrazol-5-yl)-1H-pyrazolo[4,3-b]pyridin-7-yl]-3,6-dihydro-2H-1lambda6-thiopyran-1,1-dione]
0.0013	0.01 to 0.1	CC(C)n1nc(-c2cc[nH]n2)c2nc(N3CCOC[C@H]3C)cc(-c3ccc(S(C)(=O)=O)cc3)c21 [Compound 41, (3R)-4-[7-(4-Methanesulfonylphenyl)-1-(propan-2-yl)-3-(1H-pyrazol-3-yl)-1H-pyrazolo[4,3-b]pyridin-5-yl]-3-methylmorpholine]
0.0014	0.01 to 0.1	C[C@@H]1COCCN1c1cc(-c2ccc(CO)cc2)c2c(n1)c(-c1cc[nH]n1)nn2C [Compound 52, (4-{1-Methyl-5-[(3R)-3-methylmorpholin-4-yl]-3-(1H-pyrazol-3-yl)-1H-pyrazolo[4,3-b]pyridin-7-yl}phenyl)methanol]
0.0089	0.1 to 1	C[C@@H]1COCCN1c1cc(-c2ccc(S(C)(=N)=O)cc2)c2c(n1)c(-c1cc[nH]n1)nn2C (stereo partly drawn) [Compound 6, Imino(methyl)(4-{1-methyl-5-[(3R)-3-methylmorpholin-4-yl]-3-(1H-pyrazol-3-yl)-1H-pyrazolo[4,3-b]pyridin-7-yl}phenyl)-lambda6-sulfanone]
0.0042	0.1 to 1	CC(C)Oc1cc(N2CCOC[C@H]2C)nc2c(-c3ccn[nH]3)nn(C)c12 [Compound 44, 7-Isopropoxy-1-methyl-5-((R)-3-methyl-morpholin-4-yl)-3-(2H-pyrazol-3-yl)-1H-pyrazolo[4,3-b]pyridine]

Reference: US12371430B2, “5-morpholin-4-yl-pyrazolo[4,3-b]pyridine derivatives” (Merck Patent GmbH, priority 2018, dated 2025)
